The text below walks through data of PMC9056950, “Synthesis and biochemical evaluation of cephalosporin analogues equipped with chemical tethers” (RSC Advances, 2020).

The structures appear in SMILES notation. Values after ≈ are worked out from the molar mass of the structure shown.

One assay has as its target T1, PBP4 (Bacillus subtilis, UniProt P32959).
T1 sequence (P32959 1-451): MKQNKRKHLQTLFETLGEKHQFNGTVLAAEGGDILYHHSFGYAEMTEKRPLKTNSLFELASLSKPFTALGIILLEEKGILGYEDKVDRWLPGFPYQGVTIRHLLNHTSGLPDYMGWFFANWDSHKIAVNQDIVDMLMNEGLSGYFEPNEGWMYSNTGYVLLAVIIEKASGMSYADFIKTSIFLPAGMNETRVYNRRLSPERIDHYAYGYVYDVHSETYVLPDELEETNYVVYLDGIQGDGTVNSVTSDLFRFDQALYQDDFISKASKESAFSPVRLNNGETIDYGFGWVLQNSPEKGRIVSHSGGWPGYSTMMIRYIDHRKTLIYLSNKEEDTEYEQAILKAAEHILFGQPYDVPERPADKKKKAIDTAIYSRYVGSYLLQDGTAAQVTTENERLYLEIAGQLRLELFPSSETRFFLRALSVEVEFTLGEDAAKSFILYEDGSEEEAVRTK
Briefly: biochemical. Further details: gene pbpE; commercial protein from Generon; fluorescent dye thermal shift assay, 500 nM PBP4 with 50 uM compound, delta Tm. Conditions: read-out: Average DTm/°C. As for the experimental part: The thermal shift assay was carried out using the Protein Thermal Shift™ assay kit (Applied Biosystems). 3 μM of purified E. coli PBP3 was incubated with the β-lactam analogues at 300 μM concentration in a mixture containing the Protein Thermal Shift™ Dye. The samples were then heated in a StepOnePlus™ Real-Time PCR System from 25 to 95 °C at a rate of 1 °C min^−1. Tests were carried out in triplicate and the averages plotted as the negative first derivative vs. temperature. Reference wells, i.e. solutions consisting only of only PBP3 with dye, PBP3 only, and dye only, were used as controls. Melting temperature (Tm) values were determined with and without each compound, and the change in melting temperature (ΔTm) was obtained, Fig. 2. The thermal shift assay with PBP4 was carried out using the protocol described for PBP3, with the follow deriviatisation: 500 nM of purified Bacillus subtilis PBP4 was incubated with 50 μM of the β-lactam analogues. A thermal shift assay was used to investigate the binding of the cephalexin analogues to the therapeutic target, PBP, in vitro. This assay provides a fast and inexpensive method of detecting a ligand binding to a protein of interest. Briefly, the protein is gradually heated in the presence of a fluorescent dye that binds non-specifically to the hydrophobic surfaces. […] A change in the melting temperature (Tm) when the protein is heated in the presence of a ligand, indicates a protein–ligand interaction. […] The PBPs can be divided into two main categories: high molecular mass (HMM) and low molecular mass (LMM).[13] PBP3 was chosen as a representative HMM PBP, and PBP4 as a representative LMM PBP. Cephalexin (1) has been previously reported to show good binding affinities for both PBP3 and PBP4.[14] Penicillin (11) and cefpodoxime (12) were included as positive controls. AmpC (Uniprot ID: P00811) was purchased from Abcam plc (Cambridge, UK). PBP4 (Uniprot ID: P32959) was purchased from Generon (Slough, UK).

A further assay concerns the target T2, PBP3 (Escherichia coli, UniProt P0AD68).
T2 construct: gene ftsI
T2 sequence (P0AD68 44-588): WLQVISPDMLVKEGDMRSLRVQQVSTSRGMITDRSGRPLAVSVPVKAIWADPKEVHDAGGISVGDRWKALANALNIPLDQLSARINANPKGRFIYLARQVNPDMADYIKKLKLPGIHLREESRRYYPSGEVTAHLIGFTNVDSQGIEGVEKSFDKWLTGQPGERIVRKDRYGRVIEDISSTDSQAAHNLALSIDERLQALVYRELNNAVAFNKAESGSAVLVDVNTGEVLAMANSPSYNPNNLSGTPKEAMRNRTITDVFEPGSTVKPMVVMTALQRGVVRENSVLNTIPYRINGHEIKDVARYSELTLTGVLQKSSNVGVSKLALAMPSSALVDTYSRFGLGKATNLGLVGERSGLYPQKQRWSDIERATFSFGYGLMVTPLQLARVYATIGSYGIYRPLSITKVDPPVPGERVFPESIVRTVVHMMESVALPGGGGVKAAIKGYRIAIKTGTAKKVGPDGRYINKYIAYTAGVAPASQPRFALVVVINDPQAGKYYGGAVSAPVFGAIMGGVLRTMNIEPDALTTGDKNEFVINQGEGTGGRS
Briefly: thermal shift, ligand titration. It counts as binding. Conditions: 2 μM PBP3, 25 min at room temperature before melt 35-70 °C; approximate affinity, not a Kd.

The test system of another assay is T3, E. coli.
T3 construct: BW25113
More on the design: species or system Escherichia coli BW25113; broth growth inhibition, OD600, fitted MIC from dose curve, LB, 37 C. Conditions: 16 h; inhibitor. As to the method:
Stock solutions of each compound were prepared in 50% DMSO/water at ×100 the final concentration. In a 96-well plate, 2 μL of the test compounds were added to each well. Each plate included the positive control (750 μg mL^−1 chloramphenicol), the negative control (50% DMSO/water) and media only wells. To each test well was then added 198 μL of the required bacteria stock (OD 0.05). E. coli assays were carried out using LB broth, S. aureus were carried out using tryptic soy broth (TSB). Plates were incubated at 37 °C and the OD600 was measured (Epoch 2 Microplate Spectrophotometer, BioTek) every 30 min over a 17 h period. Tests were carried out in triplicate, the background absorbance was removed using reference wells, and the averages were determined. Dose curves were plotting using the OD600 after 16 h growth vs. compound concentration. MICs were defined as the minimum concentration of compound at which no significant growth was observed after 16 h incubation. MIC values were determined using GraphPad Prism (version 8.3.0). […] Further testing was carried out […] to determine whether the tethered compounds had any antibacterial activity. Table 2 summarises the MIC values determined for 1–12, MBC50 data is included in the ESI. ^†

Turning to `CC1=C(C(=O)O)N2C(=O)[C@@H](NC(=O)[C@H](NC(=O)COCC(=O)NCCOCCOCCOCCOCCNC(=O)CCCCCN3C(=O)C=CC3=O)c3ccccc3)[C@H]2SC1` [compound 2, (6R,7R)-7-((R)-30-(2,5-Dioxo-2,5-dihydro-1H-pyrrol-1-yl)-4,8,25-trioxo-2-phenyl-6,12,15,18,21-pentaoxa-3,9,24-triazatriacontanamido)-3-methyl-8-oxo-5-thia-1-azabicyclo[4.2.0]oct-2-ene-2-carboxylic acid], the ΔTm at 50 µM at PBP4 was -1.95 °C.

For the molecule `CC1=C(C(=O)O)N2C(=O)[C@@H](NC(=O)[C@H](NC(=O)CCCCN)c3ccccc3)[C@H]2SC1` [compound 10, (6R,7R)-7-[(2R)-2-(5-Aminopentanamido)-2-phenylacetamido]-3-methyl-8-oxo-5-thia-1-azabicyclo[4.2.0]oct-2-ene-2-carboxylic acid], the ΔTm at 50 µM on PBP4 is -0.0272 °C.

For `CC1=C(C(=O)O)N2C(=O)[C@@H](NC(=O)[C@H](NC(=O)OC(C)(C)C)c3ccccc3)[C@H]2SC1` [compound 9, (6R,7R)-7-[(2R)-2-{[(Tert-butoxy)carbonyl]amino}-2-phenylacetamido]-3-methyl-8-oxo-5-thia-1-azabicyclo[4.2.0]oct-2-ene-2-carboxylic acid], on PBP4, the ΔTm at 50 µM is -0.809 °C.

Consider `CC1=C(C(=O)O)N2C(=O)[C@@H](NC(=O)[C@H](N)c3ccccc3)[C@H]2SC1` [compound 1, cephalexin], for which the “equivalents required for >Tm1/2” value at PBP3 was 75 equivalents. Moreover, on PBP4, the ΔTm at 50 µM was -0.882 °C. Moreover, the “MIC (E. coli, best-fit)” value in the assay on E. coli came to 94.91 µM (≈ 33 µg/mL).

Turning to `CC(=O)N[C@@H](C(=O)N[C@@H]1C(=O)N2C(C(=O)O)=C(C)CS[C@H]12)c1ccccc1` [compound 8, (6R,7R)-7-[(2R)-2-Acetamido-2-phenylacetamido]-3-methyl-8-oxo-5-thia-1-azabicyclo[4.2.0]oct-2-ene-2-carboxylic acid], the ΔTm at 50 µM on PBP4 was -0.248 °C.

Consider `CC1=C(C(=O)O)N2C(=O)[C@@H](NC(=O)[C@H](NC(=O)CCCCCN3C(=O)C=CC3=O)c3ccccc3)[C@H]2SC1` [compound 3, (6R,7R)-7-((R)-2-(6-(2,5-dioxo-2,5-dihyrdo-1H-pyrrol-1-yl)hexanamido)-2-phenylacetamido)-3-methyl-8-oxo-5-thia-1-azabicyclo[4.2.0]oct-2-ene-2-carboxylic acid], for which the ΔTm at 50 µM on PBP4 was -0.378 °C.

Consider `C#CCCC(=O)N[C@@H](C(=O)N[C@@H]1C(=O)N2C(C(=O)O)=C(C)CS[C@H]12)c1ccccc1` [compound 4, (6R,7R)-3-Methyl-8-oxo-7-[(2R)-2-(pent-4-ynamido)-2-phenylacetamido]-5-thia-1-azabicyclo[4.2.0]oct-2-ene-2-carboxylic acid], for which the ΔTm at 50 µM at PBP4 was -0.853 °C.

As to `CC1=C(C(=O)O)N2C(=O)[C@@H](NC(=O)[C@H](NC(=O)CCCC(=O)ON3C(=O)CCC3=O)c3ccccc3)[C@H]2SC1` [compound 6, (6R,7R)-7-[(2R)-2-{5-[(2,5-Dioxopyrrolidin-1-yl)oxy]-5-oxopentanamido}-2-phenylacetamido]-3-methyl-8-oxo-5-thia-1-azabicyclo[4.2.0]oct-2-ene-2-carboxylic acid], the ΔTm at 50 µM on PBP4 is -0.708 °C.

As to `COCC1=C(C(=O)O)N2C(=O)[C@@H](NC(=O)/C(=N\OC)c3csc(N)n3)[C@H]2SC1` [compound 12, cefpodoxime], the ΔTm at 50 µM on PBP4 is -0.695 °C. Also, the “MIC (E. coli, best-fit)” value in the assay on E. coli stood at 7.744 µM (≈ 3.31 µg/mL).

Take `CC1=C(C(=O)O)N2C(=O)[C@@H](NC(=O)[C@H](NC(=O)CCCCC3CCSS3)c3ccccc3)[C@H]2SC1` (stereo partly drawn) [compound 5, (6R,7R)-7-[(2R)-2-[5-(1,2-Dithiolan-3-yl)pentanamido]-2-phenylacetamido]-3-methyl-8-oxo-5-thia-1-azabicyclo[4.2.0]oct-2-ene-2-carboxylic acid]: the ΔTm at 50 µM on PBP4 is -0.464 °C.

For `CC1=C(C(=O)O)N2C(=O)[C@@H](NC(=O)[C@H](NC(=O)CCCC(=O)O)c3ccccc3)[C@H]2SC1` [compound 7, (6R,7R)-7-[(2R)-2-(4-Carboxybutanamido)-2-phenylacetamido]-3-methyl-8-oxo-5-thia-1-azabicyclo[4.2.0]oct-2-ene-2-carboxylic acid], the ΔTm at 50 µM on PBP4 was -0.422 °C.
